Measurements from patent US7705016B2, “Regulation of food intake by modulation of long-chain fatty acyl-CoA levels in the hypothalamus” (Albert Einstein College of Medicine of Yeshiva University, priority 2003, dated 2010).

Columns and labels:
[1] = tested on: hypothalamic NPY mRNA; assay: Hypothalamic NPY expression after ICV OA (northern blot); type: in vivo, rat; conditions: 30 nmol ICV bolus
Procedure: NPY Expression Studies. For analysis of NPY expression, we studied two groups of rats, HF55 and HF140. After three days on the respective diet regimen, ICV Vehicle (10% HPB in aCSF) or ICV OA (30 nmol) was injected as a bolus into the third cerebral ventricle one hour before the start of the dark cycle. Food was withdrawn and hypothalami were harvested 16 hrs following injection. Northern Blot Analysis. Total RNA was isolated from hypothalami and liver with Trizol (Invitrogen Corp., California, USA). NPY, Glc-6-Pase or PEPCK expression was measured by northern blot analysis. Hypothalamic RNA was analyzed using probes for prepro-NPY and β-actin. To assess the effect of ICV OA on the expression of hepatic enzymes, total RNA was isolated from freeze-clamped liver tissues from rats subjected to insulin clamp studies. Glc-6-Pase and PEPCK cDNA were obtained as previously described (Combs et al., 2001; Massillon et al., 1996; 1998). Probes were labeled with [α-^32P] dCTP using a random primer kit (Stratagene). Quantification was performed by scanning densitometry, normalizing for β-actin signal and 18S ribosomal RNA to correct for loading variabilities.

[2] = tested on: CPT1L mRNA; assay: CPT1L mRNA in stably transfected AtT20 cells (northern blot); type: cell-based; conditions: AtT20 cells expressing CPT1L-Ribo; normalized to β-actin
Description: Potent anorexic drugs such as fatty acid synthase (FAS) inhibitors increase the levels of malonyl-CoA, which is derived from the carboxylation of acetyl-CoA by the enzyme acetyl-CoA carboxylase (ACC). High levels of malonyl-CoA in turn inhibit CPT1-dependent oxidation of long-chain fatty acyl-CoAs (LC-CoAs). Similarly, the ICV administration of exogenous fatty acids (LCFA) directly increases the cellular levels of LC-CoA. In either case the resulting increase in intracellular LC-CoA concentration leads to inhibition of feeding behavior. […] LEFT: A probe specific for the liver isoform of CPT1 (CPT1L) detected a ˜4.3 Kb band in the liver (L) and in hypothalamus (H), but not in hind limb muscle (M). RIGHT: Hybridization with a muscle-specific CPT1 probe (CPT1M) detected a ˜3 Kb band in […] muscle (M), but not in hypothalamus. Each lane contained 1.5 μg of mRNA. […] About 200 stable clones were selected for neomycin resistance and analyzed by Northern blot. […] Data are expressed as % of control after normalization with β-actin expression. […] Levels of LC-CoAs were measured by HPLC in liver and skeletal muscle tissues of rats infused IV with vehicle (▪) or CPT1 inhibitors (□). […]
Quantitation of CPT1 and neuropeptides mRNA by Northern and real-time PCR. […]

| Compound | suppression of hypothalamic NPY mRNA expression ([1]; 55-kcal/d group, overnight fast) [%] | decrease in hypothalamic NPY mRNA ([1]; three days of voluntary overfeeding (HF140), fasted) [%] | less CPT1L mRNA than control cells transfected with vector alone [2] [%] |
| --- | --- | --- | --- |
| CCCCCCCC/C=C\CCCCCCCC(=O)O [OA, oleic acid] | ~60 | 28 | – |
| CPT1L-Ribo: plasmid (pTarget, CMV promoter) expressing a hammerhead ribozyme that specifically cleaves rat CPT1L mRNA, complexed to PEI for ICV injection (DNA CUGUACCAAAGAGCUGUAGAGUCCGUGAGGACGAAACGCCGCUCACAAUG) | – | – | ~50 |
